Converted amounts (≈) assume the structure as drawn.
Assays:
Format in all cases: cell-based
[1] = tested on: Staphylococcus aureus V41; assay: standard agar-dilution assay (MIC); conditions: Staphylococcus aureus V41, penicillin-resistant strain, unit assumed
Protocol: (§1) The MIC's in Table II were determined by standard agar-dilution assays. The MIC's in Table III were obtained using a conventional broth-dilution microtiter test.
^b Penicillinresistant strain

[2] = tested on: Staphylococcus aureus X400; assay: standard agar-dilution assay (MIC); conditions: Staphylococcus aureus X400, methicillin-resistant strain, unit assumed
Protocol: as §1
^c Methicillinresistant-strain

[3] = tested on: Haemophilus influenzae Holt; assay: standard agar-dilution assay (MIC); conditions: ampicillin-sensitive strain, unit assumed
Protocol: as §1

[4] = tested on: Haemophilus influenzae R252; assay: standard agar-dilution assay (MIC); conditions: Haemophilus influenzae R252, ampicillin-resistant strain, unit assumed
Protocol: as §1

[5] = tested on: Staphylococcus aureus S13E; assay: standard agar-dilution assay (MIC); conditions: unit assumed
Protocol: as §1

[6] = tested on: Staphylococcus aureus X1.1; assay: standard agar-dilution assay (MIC); conditions: unit assumed
Protocol: as §1

[7] = tested on: Staphylococcus epidermidis EPI1; assay: standard agar-dilution assay (MIC); conditions: unit assumed
Protocol: as §1

[8] = tested on: Staphylococcus epidermidis EPI2; assay: standard agar-dilution assay (MIC); conditions: unit assumed
Protocol: as §1

Streptococcus Group 9960 = assay: standard agar-dilution assay (MIC); conditions: unit assumed
Protocol: as §1

[9] = tested on: Streptococcus Group D X66; assay: standard agar-dilution assay (MIC); conditions: unit assumed
Protocol: as §1

[10] = tested on: Streptococcus pyogenes C203; assay: standard agar-dilution assay (MIC); conditions: unit assumed
Protocol: as §1

[11] = tested on: Streptococcus pneumoniae Park I; conditions: agar dilution, unit assumed
Protocol: as §1

Mycoplasma gallisepticum = assay: conventional broth-dilution microtiter test (MIC); conditions: unit assumed
Protocol: as §1

Mycoplasma hyorhinis = assay: conventional broth-dilution microtiter test (MIC); conditions: unit assumed
Protocol: as §1

Mycoplasma synoviae = assay: conventional broth-dilution microtiter test (MIC); conditions: unit assumed
Protocol: as §1

[12] = tested on: Pasteurella multocida 17E; assay: conventional broth-dilution microtiter test (MIC); conditions: bovine isolate, unit assumed
Protocol: as §1

[13] = tested on: Pasteurella multocida 60A; assay: conventional broth-dilution microtiter test (MIC); conditions: avian isolate, unit assumed
Protocol: as §1

Staphylococcus aureus = assay: conventional broth-dilution microtiter test (MIC); conditions: unit assumed
Protocol: as §1

Streptococcus sp. 80 = assay: conventional broth-dilution microtiter test (MIC); conditions: unit assumed
Protocol: as §1

Compound | MIC [1] [µg/mL] | MIC [2] [µg/mL] | MIC [3] [µg/mL] | MIC [4] [µg/mL] | MIC [5] [µg/mL] | MIC [6] [µg/mL] | MIC [7] [µg/mL] | MIC [8] [µg/mL] | MIC (Streptococcus Group 9960) [µg/mL] | MIC [9] [µg/mL] | MIC [10] [µg/mL] | MIC [11] [µg/mL] | MIC (Mycoplasma gallisepticum) [µg/mL] | MIC (Mycoplasma hyorhinis) [µg/mL] | MIC (Mycoplasma synoviae) [µg/mL] | MIC [12] [µg/mL] | MIC [13] [µg/mL] | MIC (Staphylococcus aureus) [µg/mL] | MIC (Streptococcus sp. 80) [µg/mL]
CCC1OC(=O)CC(O)C(C)C(OC2OC(C)C(OC3CC(C)(O)C(O)C(C)O3)C(N(C)C)C2OC(C)=O)C(CC=O)CC(C)C(=O)C=CC(C)=CC1COC(=O)n1ccnc1 (stereo not drawn) [Compound 21] | 2 (≈ 2.28 µM) | 2 (≈ 2.28 µM) | 16 (≈ 18.2 µM) | 8 (≈ 9.11 µM) | 1 (≈ 1.14 µM) | 1 (≈ 1.14 µM) | 2 (≈ 2.28 µM) | 2 (≈ 2.28 µM) | 1 (≈ 1.14 µM) | 2 (≈ 2.28 µM) | 0.5 (≈ 0.569 µM) | 0.125 (≈ 0.142 µM) | 0.78 (≈ 0.888 µM) | 1.56 (≈ 1.78 µM) | 0.78 (≈ 0.888 µM) | 12.5 (≈ 14.2 µM) | 12.5 (≈ 14.2 µM) | 6.25 (≈ 7.12 µM) | 0.78 (≈ 0.888 µM)
CCC1OC(=O)CC(O)C(C)C(OC2OC(C)C(OC3CC(C)(O)C(O)C(C)O3)C(N(C)C)C2OC(C)=O)C(CC=O)CC(C)C(=O)C=CC(C)=CC1COC(=O)C12CC3CC(CC(C3)C1)C2 (stereo not drawn) [Compound 23] | 2 (≈ 2.11 µM) | 2 (≈ 2.11 µM) | > 128 | > 128 | 2 (≈ 2.11 µM) | 2 (≈ 2.11 µM) | 2 (≈ 2.11 µM) | 4 (≈ 4.23 µM) | 4 (≈ 4.23 µM) | 4 (≈ 4.23 µM) | 2 (≈ 2.11 µM) | 1 (≈ 1.06 µM) | 6.25 (≈ 6.61 µM) | 25 (≈ 26.4 µM) | 1.56 (≈ 1.65 µM) | 50 (≈ 52.8 µM) | > 50 | 6.25 (≈ 6.61 µM) | < 0.78
CCC1OC(=O)CC(O)C(C)C(OC2OC(C)C(OC3CC(C)(O)C(O)C(C)O3)C(N(C)C)C2OC(C)=O)C(CC=O)CC(C)C(=O)C=CC(C)=CC1COC(=O)OC (stereo not drawn) [Compound 24] | 0.5 (≈ 0.594 µM) | 0.5 (≈ 0.594 µM) | 16 (≈ 19 µM) | 8 (≈ 9.5 µM) | 0.5 (≈ 0.594 µM) | 0.5 (≈ 0.594 µM) | 0.5 (≈ 0.594 µM) | 0.5 (≈ 0.594 µM) | 0.5 (≈ 0.594 µM) | 0.5 (≈ 0.594 µM) | 0.25 (≈ 0.297 µM) | 0.06 (≈ 0.0713 µM) | 0.78 (≈ 0.926 µM) | 1.56 (≈ 1.85 µM) | 0.78 (≈ 0.926 µM) | 6.25 (≈ 7.42 µM) | 12.5 (≈ 14.8 µM) | 3.12 (≈ 3.71 µM) | 0.78 (≈ 0.926 µM)
CCC1OC(=O)CC(O)C(C)C(OC2OC(C)C(OC3CC(C)(O)C(O)C(C)O3)C(N(C)C)C2O)C(CC=O)CC(C)C(=O)C=CC(C)=CC1COC(=O)NCCCCCCCCN (stereo not drawn) [Compound 27] | 2 (≈ 2.19 µM) | 8 (≈ 8.77 µM) | 32 (≈ 35.1 µM) | 32 (≈ 35.1 µM) | 4 (≈ 4.39 µM) | 2 (≈ 2.19 µM) | 2 (≈ 2.19 µM) | 4 (≈ 4.39 µM) | 4 (≈ 4.39 µM) | 4 (≈ 4.39 µM) | 1 (≈ 1.1 µM) | 0.25 (≈ 0.274 µM) | 0.78 (≈ 0.855 µM) | 3.12 (≈ 3.42 µM) | 3.12 (≈ 3.42 µM) | 25 (≈ 27.4 µM) | 50 (≈ 54.8 µM) | 6.25 (≈ 6.85 µM) | 0.78 (≈ 0.855 µM)
CCC1OC(=O)CC(O)C(C)C(OC2OC(C)C(OC3CC(C)(O)C(O)C(C)O3)C(N(C)C)C2O)C(CC=O)CC(C)C(=O)C=CC(C)=CC1COC(=O)N1CCC(O)CC1 (stereo not drawn) [Compound 28] | 1 (≈ 1.15 µM) | 2 (≈ 2.3 µM) | 8 (≈ 9.21 µM) | 16 (≈ 18.4 µM) | 2 (≈ 2.3 µM) | 1 (≈ 1.15 µM) | 0.5 (≈ 0.575 µM) | 2 (≈ 2.3 µM) | 1 (≈ 1.15 µM) | 1 (≈ 1.15 µM) | 0.25 (≈ 0.288 µM) | 0.125 (≈ 0.144 µM) | 0.39 (≈ 0.449 µM) | 0.78 (≈ 0.898 µM) | 0.78 (≈ 0.898 µM) | 12.5 (≈ 14.4 µM) | 25 (≈ 28.8 µM) | 1.56 (≈ 1.8 µM) | 0.39 (≈ 0.449 µM)
CCC1OC(=O)CC(O)C(C)C(OC2OC(C)C(OC3CC(C)(O)C(O)C(C)O3)C(N(C)C)C2O)C(CC=O)CC(C)C(=O)C=CC(C)=CC1COC(=O)NCCN1CCOCC1 (stereo not drawn) [Compound 29] | 1 (≈ 1.11 µM) | 4 (≈ 4.45 µM) | 16 (≈ 17.8 µM) | 16 (≈ 17.8 µM) | 2 (≈ 2.23 µM) | 1 (≈ 1.11 µM) | 1 (≈ 1.11 µM) | 2 (≈ 2.23 µM) | 2 (≈ 2.23 µM) | 2 (≈ 2.23 µM) | 0.5 (≈ 0.557 µM) | 0.125 (≈ 0.139 µM) | 0.39 (≈ 0.434 µM) | 6.25 (≈ 6.96 µM) | 1.56 (≈ 1.74 µM) | 12.5 (≈ 13.9 µM) | 25 (≈ 27.8 µM) | 1.56 (≈ 1.74 µM) | 0.78 (≈ 0.868 µM)

Reference: patent publication US4396613A, “23-Ester derivatives of DMT and method of using same” (Eli Lilly and Company, priority 1981, dated 1983)
